# Test results as given in patent US6271205A, “Cancer treatment by expression of differentiation factor receptor” (University of Massachusetts Medical Center, priority 1997, dated 2001).
# Test system: C6 rat glioma cells
# Test: Induction of cell cycle arrest in C6 cells with aphidicolin
# Format: cell-based
# Details: 0.3 μM aphidicolin, 5 days
# Protocol: SH-SY5Y cells were grown at 37° C. in RPMI 1640 medium (GIBCO BRL, Gaithersburg, Md.) supplemented with 10% fetal bovine serum (Sigma Chemicals, St. Louis, Mo.) and 100 μg/ml of gentamicin. For differentiation studies, cells were plated (1.5×10^5 to 5×10^5 cells/dish) in 35-mm Primaria dishes (Falcon, Franklin Lakes, N.J.). One hundred ng/ml NGF (2.5 S; Bioproducts for Science, Indianapolis, Ind.) and/or 0.3 μM aphidicolin (Sigma Chemicals, St. Louis, Mo.) were added every 2-3 days. Cell proliferation was assessed by BrdU labeling, as described by LoPresti et al. (Cell Growth Diff. (1992) 3:627-635).
# 0.3 μM aphidicolin (Sigma, St. Louis Mo.) was added to logarithmically growing C6 rat glioma cells (ATCC, CCL 107, Rockville, Md.) in MEM medium supplemented with 10% fetal bovine serum (Sigma, St. Louis, Mo.). After 5 days incubation, growth arrested cells were removed with trypsin and 2.0×10^4 cells were seeded on polyornithine coated coverslips (polyornithine hydrobromide, Sigma) containing aphidicolin supplemented media for another five days in 24-well plates. Coverslips were then fixed in either methanol (10 minutes at -20° C.) or 4% paraformaldehyde (20 minutes at room temperature) for immunohistochemical analysis.
# Less than 5% of cells were stained to any extent with antibodies to GFAP, medium and heavy chain neurofilament (SMI-312) or MAP-2. […]
smiles,measurement,setting,value
C[C@@]1(CO)[C@H](O)CC[C@@]2(C)[C@H]1CC[C@H]1C[C@@H]3C[C@@]12CC[C@]3(O)CO [aphidicolin],cells extending branched complex neurite-like processes,,48%
same,BrDU labeling (proliferation),"MEM + 10% FBS, untreated cells 52%",7.2%
